Data on one compound can be found in patent publication US10610504B2, “Alpha-cell re-generation combined with conversion to beta cells” (INSERM (INSTITUT NATIONAL DE LA SANTÉ ET DE LA RECHERCHE …, priority 2014, dated 2020).

Structures are written as SMILES.

Assay [1] has as its system insulin+ cells (beta cells). Nature of the assay: Immunohistochemical characterisation of pancreata, GABA and Glu001 combination study. It counts as in vivo, mice. Conditions: 3-month old WT animals treated for a month, daily IP; vs saline. Here is the method: To determine if the combination of GABA and Glu001 could increase beta-cell mass wild type mice were treated with 1) saline, 2) GABA (daily IP injections of 50 μM/40 g mouse), 3) Glu001 (daily IP injections of 4 mg/kg) and 4) GABA+Glu001.

The test system of assay [2] is beta-like cells. Conditions: upon GABA administration, as mentioned in WO14048788; cited from earlier work.

As for `NCCCC(=O)O` [GABA, gamma-amino butyric acid], the “insulin+ cell count / beta cell mass” value in assay [1] is listed as “expected increase”. For the same compound, the beta-like cell number entry in assay [2] is reported as “progressive increase”.
